Source: patent publication US8445542B2, “Methods of accelerating muscle growth, decreasing fat deposits and improving feed efficiency in livestock animals” (Bridge Pharma, Inc., priority 2006, dated 2013)

Legend:
[1] = tested on: livestock animals; details: Marchant-Forde et al., cited from earlier work; for tachycardia in livestock animals: 2003 and London et al. 2005
[2] = tested on: laboratory animals; assay: Neuropharmacological profile (Irwin test), repeated oral administration
[3] = tested on: adrenergic beta-receptors in adipose tissue; details: animals exposed to the drug; Spurlock et al. 1994; cited from earlier work
[4] = target: adrenergic beta-3 receptors (Homo sapiens, UniProt P13945); assay: Receptor binding, beta-3 (present studies)
adrenergic beta-3 receptors, sequence (P13945 whole entry): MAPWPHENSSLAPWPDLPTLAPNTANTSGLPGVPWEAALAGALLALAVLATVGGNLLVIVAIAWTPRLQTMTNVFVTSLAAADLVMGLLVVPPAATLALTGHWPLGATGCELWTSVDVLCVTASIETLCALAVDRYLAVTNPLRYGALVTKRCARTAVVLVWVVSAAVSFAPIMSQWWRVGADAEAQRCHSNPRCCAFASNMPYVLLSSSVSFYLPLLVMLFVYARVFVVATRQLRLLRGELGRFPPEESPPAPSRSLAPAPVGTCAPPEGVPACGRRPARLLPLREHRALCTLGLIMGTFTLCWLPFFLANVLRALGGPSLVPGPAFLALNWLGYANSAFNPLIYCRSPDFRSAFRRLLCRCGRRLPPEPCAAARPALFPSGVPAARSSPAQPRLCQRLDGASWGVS

[5] = tested on: mice; assay: Stress testing in mice, methodology of Aberg (U.S. Pat. No. 6,372,799)
[6] = tested on: adrenergic alpha-receptors; details: isolated smooth and cardiac muscle tissues of rat and guinea pig; Colbert et al. 1991; cited from earlier work
[7] = target: beta-3 receptors (Homo sapiens, UniProt P13945); details: background statement; cited from earlier work
beta-3 receptors, sequence (P13945 whole entry): as above

[8] = tested on: Airway smooth muscle tissues; assay: Airway smooth muscle contracted by carbachol; details: ongoing studies
Excerpt: Airway smooth muscle tissues were contracted by carbachol. The inhibitory effects of isomers, enantiomeric pairs and a racemic mixture of ractopamine are being investigated.
Test results from these functional studies verify and support the results from the receptor binding studies.

[9] = tested on: adrenergic beta-receptor; assay: Adrenergic beta-receptor stimulating activity of the isomers; details: compared with RR-ractopamine; this document and Shappell et al, 2000
Excerpt: J. Anim. Sci. 2000, 78: 699-708, which publication is hereby included in its entirety by reference.)

[10] = target: porcine adrenergic β-2 receptors (Sus scrofa, UniProt Q28997); details: Mills et al., 2003; cited from earlier work
porcine adrenergic β-2 receptors, sequence (Q28997 whole entry): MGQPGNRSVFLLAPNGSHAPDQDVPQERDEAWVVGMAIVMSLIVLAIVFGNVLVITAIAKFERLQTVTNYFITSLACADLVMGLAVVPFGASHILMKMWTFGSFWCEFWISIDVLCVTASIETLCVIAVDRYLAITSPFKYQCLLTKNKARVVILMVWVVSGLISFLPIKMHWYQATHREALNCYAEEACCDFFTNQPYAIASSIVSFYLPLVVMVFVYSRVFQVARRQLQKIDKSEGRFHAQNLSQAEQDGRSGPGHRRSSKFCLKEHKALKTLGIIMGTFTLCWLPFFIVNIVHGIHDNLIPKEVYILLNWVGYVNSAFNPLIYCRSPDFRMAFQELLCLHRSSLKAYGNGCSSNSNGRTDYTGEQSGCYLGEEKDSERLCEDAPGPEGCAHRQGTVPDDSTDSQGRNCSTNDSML

[11] = target: adrenergic beta-1 receptors (Homo sapiens, UniProt P08588); assay: Receptor binding studies, beta-1
adrenergic beta-1 receptors, sequence (P08588 whole entry): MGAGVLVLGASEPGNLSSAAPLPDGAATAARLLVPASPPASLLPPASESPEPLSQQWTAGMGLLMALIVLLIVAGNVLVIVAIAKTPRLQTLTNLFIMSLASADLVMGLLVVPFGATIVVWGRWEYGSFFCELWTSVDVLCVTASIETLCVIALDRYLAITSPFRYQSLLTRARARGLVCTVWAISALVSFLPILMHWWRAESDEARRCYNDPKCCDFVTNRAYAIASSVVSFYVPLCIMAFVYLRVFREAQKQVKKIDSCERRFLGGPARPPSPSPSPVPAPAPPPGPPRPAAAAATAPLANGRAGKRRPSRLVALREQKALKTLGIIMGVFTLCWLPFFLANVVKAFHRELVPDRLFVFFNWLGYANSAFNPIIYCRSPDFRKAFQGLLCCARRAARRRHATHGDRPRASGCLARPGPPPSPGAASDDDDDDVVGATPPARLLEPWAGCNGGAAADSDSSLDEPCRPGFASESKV
Excerpt: Interesting and important advantages of receptor selectivity by RR-ractopamine were found.

[12] = Optical stability
[13] = tested on: mice; assay: Spontaneous motor activity in mice (part of Irwin tests); type: in vivo; details: oral

CC(C)(C)NC[C@H](O)c1ccc(O)c(CO)c1 [R-salbutamol]
tachycardia in livestock animals [1]: not causing tachycardia | stress in Irwin test ([2]; repeated oral administration): no stress

CC(CCc1ccc(O)cc1)NCC(O)c1ccc(O)cc1.Cl (racemic) [racemic ractopamine, 4-hydroxy-a-[[[3-(4-hydroxyphenyl)-1-methylpropyl]amino]methyl]benzenemethanol hydrochloride]
reduction of the concentration of adrenergic beta-receptors in adipose tissue [3]: 50% | affinity for adrenergic beta-3 receptors [4]: neither racemic ractopamine nor any of the ractopamine isomers had affinity | CNS-mediated stress in livestock animals [1]; 2003: cause CNS-mediated stress | tachycardia in livestock animals [1]: significant tachycardia | stress in Irwin test ([2]; repeated oral administration): produced increased stress | CNS-mediated stress ([5]; mice, ongoing testing): demonstrate CNS-mediated stress | effect on adrenergic alpha-receptors [6]: no significant effect | affinity for beta-3 receptors [7]: negligible affinity

C[C@@H](CCc1ccc(O)cc1)NC[C@@H](O)c1ccc(O)cc1 (racemic) [SS-ractopamine]
airway smooth muscle relaxing activity [8]: very weak activity | adrenergic beta-receptor stimulating activity [9]: completely devoid of adrenergic beta-receptor stimulating activity

CC(C)(C)NCC(O)c1ccc(O)c(CO)c1 (centres unmarked) [salbutamol]
affinity for beta-3 receptors [7]: negligible affinity

RR-4-hydroxy-a-[[[3-(4-hydroxyphenyl)-1-methylpropyl]amino]methyl]benzenemethanol [RR-ractopamine]
binding affinity relative to the racemic mixture of all four isomers [10]: about 2.5 times | stress in Irwin test ([2]; mouse, in vivo, po): did not cause stress | affinity for adrenergic beta-1 receptors compared with the racemic mixture of all four isomers [11]: higher affinity | CNS-mediated stress ([5]; mouse, in vivo): not causing stress | optical stability [12]: optically stable | effect on spontaneous motor activity [13]: no statistically significant effects

CC(CCc1ccc(O)cc1)NCC(O)c1ccc(O)cc1 (centres unmarked) [RS]
adrenergic beta-receptor stimulating activity [9]: reduced beta-receptor activity
